Tested on: microbes (bacteria and fungi)
Test: USP 51, Antimicrobial Effectiveness Test
Type: cell-based
Settings: combined with 12.5 ppm colloidal silver; aqueous solution containing seaweed extract

CS(C)(=O)=O [MSM, methylsulfonylmethane]
sufficient concentration of MSM for effective cosmetic preservation per USP 51: 10 % (w/w)

From US20210161147A1, “BROAD SPECTRUM COSMETIC PRESERVATIVE SYSTEM” (priority 2019, published 2021)
